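Interpolation was linear, between the two tested concentrations surrounding the appropriate level; five concentrations were tested over 48 hours in 96-well plates. TGI: concentration producing complete growth inhibition.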
Experiments:
Assay in all cases: growth of human tumour cells (NCI), 48 h
786-0 renal = test system: 786-0 renal
A498 renal = test system: A498 renal
A549 NSCLC = test system: A549 NSCLC
ACHN renal = test system: ACHN renal
BT-549 breast = test system: BT-549 breast
CAKI-1 renal = test system: CAKI-1 renal
CCRF-CEM leukemia = test system: CCRF-CEM leukemia
COLO 205 colon = test system: COLO 205 colon
DU-145 prostate = test system: DU-145 prostate
EKVX NSCLC = test system: EKVX NSCLC
HCC-2998 colon = test system: HCC-2998 colon
HCT-116 colon = test system: HCT-116 colon
HCT-15 colon = test system: HCT-15 colon
HL-60(TB) leukemia = test system: HL-60(TB) leukemia
HOP-62 NSCLC = test system: HOP-62 NSCLC
HOP-92 NSCLC = test system: HOP-92 NSCLC
HS 578T breast = test system: HS 578T breast
HT29 colon = test system: HT29 colon
IGROV1 ovarian = test system: IGROV1 ovarian
K-562 leukemia = test system: K-562 leukemia
KM12 colon = test system: KM12 colon
LOX IMVI melanoma = test system: LOX IMVI melanoma
M14 melanoma = test system: M14 melanoma
MALME-3M melanoma = test system: MALME-3M melanoma
MCF7 breast = test system: MCF7 breast
MDA-MB-231 breast = test system: MDA-MB-231 breast
MDA-MB-435 = test system: MDA-MB-435
MDA-N = test system: MDA-N
MOLT-4 leukemia = test system: MOLT-4 leukemia
NCI-H23 lung = test system: NCI-H23 lung
NCI-H460 lung = test system: NCI-H460 lung
NCI-H522 lung = test system: NCI-H522 lung
NCI/ADR-RES ovarian = test system: NCI/ADR-RES ovarian
OVCAR-3 ovarian = test system: OVCAR-3 ovarian
OVCAR-4 ovarian = test system: OVCAR-4 ovarian
OVCAR-5 ovarian = test system: OVCAR-5 ovarian
OVCAR-8 ovarian = test system: OVCAR-8 ovarian
PC-3 prostate = test system: PC-3 prostate
RPMI-8226 leukemia = test system: RPMI-8226 leukemia
RXF 393 renal = test system: RXF 393 renal
SF-268 CNS = test system: SF-268 CNS
SF-295 CNS = test system: SF-295 CNS
SF-539 CNS = test system: SF-539 CNS
SK-MEL-2 melanoma = test system: SK-MEL-2 melanoma
SK-MEL-28 melanoma = test system: SK-MEL-28 melanoma
SK-MEL-5 melanoma = test system: SK-MEL-5 melanoma
SK-OV-3 ovarian = test system: SK-OV-3 ovarian
SN12C renal = test system: SN12C renal
SNB-19 CNS = test system: SNB-19 CNS
SNB-75 CNS = test system: SNB-75 CNS
SW-620 colon = test system: SW-620 colon
T-47D breast = test system: T-47D breast
TK-10 renal = test system: TK-10 renal
U251 CNS = test system: U251 CNS
UACC-257 melanoma = test system: UACC-257 melanoma
UACC-62 melanoma = test system: UACC-62 melanoma
UO-31 renal = test system: UO-31 renal
NCI-H226 lung = test system: NCI-H226 lung

Compound: CC1CN=C(c2cccc(OCc3ccc(COc4cccc(C5=NCC(C)N5)c4)cc3)c2)N1 (stereo not given)
- TGI (786-0 renal): > 100 µM
- TGI (A498 renal): > 100 µM
- TGI (A549 NSCLC): > 100 µM
- TGI (ACHN renal): > 100 µM
- TGI (BT-549 breast): > 100 µM
- TGI (CAKI-1 renal): > 100 µM
- TGI (CCRF-CEM leukemia): 66.8 µM
- TGI (COLO 205 colon): 39 µM
- TGI (DU-145 prostate): > 100 µM
- TGI (EKVX NSCLC): > 100 µM
- TGI (HCC-2998 colon): 48.4 µM
- TGI (HCT-116 colon): > 100 µM
- TGI (HCT-15 colon): > 100 µM
- TGI (HL-60(TB) leukemia): > 100 µM
- TGI (HOP-62 NSCLC): > 100 µM
- TGI (HOP-92 NSCLC): > 100 µM
- TGI (HS 578T breast): > 100 µM
- TGI (HT29 colon): > 100 µM
- TGI (IGROV1 ovarian): > 100 µM
- TGI (K-562 leukemia): > 100 µM
- TGI (KM12 colon): 81.7 µM
- TGI (LOX IMVI melanoma): 62.1 µM
- TGI (M14 melanoma): > 100 µM
- TGI (MALME-3M melanoma): > 100 µM
- TGI (MCF7 breast): > 100 µM
- TGI (MDA-MB-231 breast): > 100 µM
- TGI (MDA-MB-435): > 100 µM
- TGI (MDA-N): > 100 µM
- TGI (MOLT-4 leukemia): 57.3 µM
- TGI (NCI-H23 lung): > 100 µM
- TGI (NCI-H460 lung): 78.5 µM
- TGI (NCI-H522 lung): > 100 µM
- TGI (NCI/ADR-RES ovarian): > 100 µM
- TGI (OVCAR-3 ovarian): > 100 µM
- TGI (OVCAR-4 ovarian): > 100 µM
- TGI (OVCAR-5 ovarian): > 100 µM
- TGI (OVCAR-8 ovarian): > 100 µM
- TGI (PC-3 prostate): > 100 µM
- TGI (RPMI-8226 leukemia): 45.4 µM
- TGI (RXF 393 renal): > 100 µM
- TGI (SF-268 CNS): > 100 µM
- TGI (SF-295 CNS): > 100 µM
- TGI (SF-539 CNS): 98.7 µM
- TGI (SK-MEL-2 melanoma): 79.7 µM
- TGI (SK-MEL-28 melanoma): > 100 µM
- TGI (SK-MEL-5 melanoma): > 100 µM
- TGI (SK-OV-3 ovarian): > 100 µM
- TGI (SN12C renal): > 100 µM
- TGI (SNB-19 CNS): > 100 µM
- TGI (SNB-75 CNS): 91.4 µM
- TGI (SW-620 colon): > 100 µM
- TGI (T-47D breast): > 100 µM
- TGI (TK-10 renal): > 100 µM
- TGI (U251 CNS): > 100 µM
- TGI (UACC-257 melanoma): 44.8 µM
- TGI (UACC-62 melanoma): > 100 µM
- TGI (UO-31 renal): > 100 µM

Compound: O=C(Cn1c2ccc(Br)cc2c2nc3ccccc3nc21)NC1CCCCC1
- TGI (786-0 renal): > 100 µM
- TGI (A498 renal): > 100 µM
- TGI (A549 NSCLC): > 100 µM
- TGI (ACHN renal): > 100 µM
- TGI (BT-549 breast): > 100 µM
- TGI (CAKI-1 renal): > 100 µM
- TGI (COLO 205 colon): > 100 µM
- TGI (DU-145 prostate): > 100 µM
- TGI (HCC-2998 colon): > 100 µM
- TGI (HCT-116 colon): > 100 µM
- TGI (HCT-15 colon): > 100 µM
- TGI (HOP-62 NSCLC): > 100 µM
- TGI (HOP-92 NSCLC): > 100 µM
- TGI (HS 578T breast): > 100 µM
- TGI (HT29 colon): > 100 µM
- TGI (IGROV1 ovarian): > 100 µM
- TGI (K-562 leukemia): > 100 µM
- TGI (KM12 colon): > 100 µM
- TGI (LOX IMVI melanoma): > 100 µM
- TGI (M14 melanoma): > 100 µM
- TGI (MALME-3M melanoma): > 100 µM
- TGI (MDA-MB-231 breast): > 100 µM
- TGI (MDA-MB-435): > 100 µM
- TGI (MDA-N): > 100 µM
- TGI (MOLT-4 leukemia): > 100 µM
- TGI (NCI-H226 lung): > 100 µM
- TGI (NCI-H23 lung): > 100 µM
- TGI (NCI-H460 lung): > 100 µM
- TGI (NCI-H522 lung): > 100 µM
- TGI (NCI/ADR-RES ovarian): > 100 µM
- TGI (OVCAR-3 ovarian): > 100 µM
- TGI (OVCAR-4 ovarian): > 100 µM
- TGI (OVCAR-5 ovarian): > 100 µM
- TGI (OVCAR-8 ovarian): > 100 µM
- TGI (PC-3 prostate): > 100 µM
- TGI (RPMI-8226 leukemia): > 100 µM
- TGI (RXF 393 renal): > 100 µM
- TGI (SF-268 CNS): > 100 µM
- TGI (SF-295 CNS): > 100 µM
- TGI (SK-MEL-2 melanoma): > 100 µM
- TGI (SK-MEL-28 melanoma): > 100 µM
- TGI (SK-MEL-5 melanoma): > 100 µM
- TGI (SK-OV-3 ovarian): > 100 µM
- TGI (SN12C renal): > 100 µM
- TGI (SNB-19 CNS): > 100 µM
- TGI (SNB-75 CNS): > 100 µM
- TGI (SW-620 colon): > 100 µM
- TGI (T-47D breast): > 100 µM
- TGI (TK-10 renal): > 100 µM
- TGI (U251 CNS): > 100 µM
- TGI (UACC-257 melanoma): > 100 µM
- TGI (UACC-62 melanoma): > 100 µM
- TGI (UO-31 renal): > 100 µM

— PubChem BioAssay (NCI)
